Measured values reported in the Kinase Knowledgebase extract (Sharma et al. 2016).

Biological target: MAPK14 (human) (UniProt Q16539)
Assay: Inhibition of LPS Stimulated TNF Production by U937 Cells
Conditions: not given

Chain of MAPK14 (human) (Q16539 whole entry, looked up): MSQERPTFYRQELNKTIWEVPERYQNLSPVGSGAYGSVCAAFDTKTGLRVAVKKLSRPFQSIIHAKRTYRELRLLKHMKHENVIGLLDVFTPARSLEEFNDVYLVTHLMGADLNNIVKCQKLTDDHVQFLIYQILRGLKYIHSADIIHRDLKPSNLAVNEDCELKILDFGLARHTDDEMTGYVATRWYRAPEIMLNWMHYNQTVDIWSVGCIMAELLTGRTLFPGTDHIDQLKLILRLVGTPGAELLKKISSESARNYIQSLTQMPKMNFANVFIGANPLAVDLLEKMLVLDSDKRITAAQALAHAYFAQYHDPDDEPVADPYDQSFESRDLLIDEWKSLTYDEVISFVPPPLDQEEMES

| SMILES | IC50 |
| --- | --- |
| N#Cc1cc(-c2c[nH]nc2-c2ccc(F)cc2)ccn1 | 298 nM |
| CS(=O)(=O)c1ccc(CNC(=O)NCCCc2[nH]nc(-c3ccc(F)cc3)c2-c2ccncc2)cc1 | > 1000 nM |
| Cn1cc(-c2ccnc(F)c2)c(-c2ccc(F)cc2)n1 | 456 nM |
| CC(=O)O[C@@H](C)C(=O)NCc1[nH]nc(-c2ccc(F)cc2)c1-c1ccncc1 | 6510 nM |
| Cn1cc(-c2ccncc2)c(-c2ccc(C(F)(F)F)cc2)n1 | 1200 nM |
| CC(=O)OC(C)(C)C(=O)NCc1[nH]nc(-c2ccc(F)cc2)c1-c1ccncc1 | 540 nM |
| CNC(=O)CC[C@H](NC(=O)c1ccc(C)cc1)c1[nH]nc(-c2ccc(F)cc2)c1-c1ccncc1 | > 1000 nM |
| CN(C)CCn1cc(-c2ccncc2)c(-c2ccc(F)cc2)n1 | 254 nM |
| FC(F)(F)c1cccc(-c2n[nH]cc2-c2ccncc2)c1 | 87 nM |
| O=S(=O)(c1ccc(F)c(F)c1)N1CCC(c2[nH]nc(-c3ccc(F)cc3)c2-c2ccncc2)CC1 | > 1000 nM |
| Cn1nc(-c2ccc(F)cc2)c(-c2ccncc2)c1C(O)c1ccccc1 (stereo unspecified) | 349 nM |
| CN(C)CCCNC(=O)NCCCc1[nH]nc(-c2ccc(F)cc2)c1-c1ccncc1 | > 1000 nM |
| O=C(NCc1[nH]nc(-c2ccc(F)cc2)c1-c1ccncc1)c1ccc(F)cc1 | 2760 nM |
| CCCNC(=O)N[C@@H](C)c1[nH]nc(-c2ccc(F)cc2)c1-c1ccncc1 | 38000 nM |

Same assay, conditions: concentration not given here

| SMILES | inhibition |
| --- | --- |
| C[C@@H](NC(=O)c1cccc(C#N)c1)c1[nH]nc(-c2ccc(F)cc2)c1-c1ccncc1 | 37% |
| O=C(NCc1[nH]nc(-c2ccc(F)cc2)c1-c1ccncc1)c1cccc(C(F)(F)F)c1F | 29% |
| C[C@H](NC(=O)c1c(F)cccc1C(F)(F)F)c1[nH]nc(-c2ccc(F)cc2)c1-c1ccncc1 | 59% |
| O=S(=O)(NCc1[nH]nc(-c2ccc(F)cc2)c1-c1ccncc1)c1ccc(S(=O)(=O)c2ccccc2)s1 | 64% |
| CCN(CC)C(=O)N[C@@H](C)c1[nH]nc(-c2ccc(F)cc2)c1-c1ccncc1 | 63% |
| O=S(=O)(c1ccc(Cl)cc1)N1CCC(c2[nH]nc(-c3ccc(F)cc3)c2-c2ccncc2)CC1 | 25% |
| Cc1ccc(F)cc1S(=O)(=O)NCc1[nH]nc(-c2ccc(F)cc2)c1-c1ccncc1 | 24% |
| CCCCCCCC(=O)NCc1[nH]nc(-c2ccc(F)cc2)c1-c1ccncc1 | 4% |
| Cc1ccccc1S(=O)(=O)N[C@H](C)c1[nH]nc(-c2ccc(F)cc2)c1-c1ccncc1 | 92% |
| Cc1ccc(F)cc1S(=O)(=O)N[C@@H](C)c1[nH]nc(-c2ccc(F)cc2)c1-c1ccncc1 | 72% |
| O=C(NCCc1ccccc1)NCc1[nH]nc(-c2ccc(F)cc2)c1-c1ccncc1 | 9% |
| O=C(NCCCc1[nH]nc(-c2ccc(F)cc2)c1-c1ccncc1)NCc1cccnc1 | 11% |
| C[C@H](NS(=O)(=O)c1ccccc1Cl)c1[nH]nc(-c2ccc(F)cc2)c1-c1ccncc1 | 94% |
| C[C@H](NC(=O)c1c(F)ccc(F)c1F)c1[nH]nc(-c2ccc(F)cc2)c1-c1ccncc1 | 67% |
| O=S(=O)(N[C@H](Cc1ccccc1)c1[nH]nc(-c2ccc(F)cc2)c1-c1ccncc1)c1cccs1 | 29% |
| O=S(=O)(NCc1[nH]nc(-c2ccc(F)cc2)c1-c1ccncc1)c1cc(Cl)cc(Cl)c1 | 45% |
| C[C@H](NC(=O)c1cccc(C(F)(F)F)c1)c1[nH]nc(-c2ccc(F)cc2)c1-c1ccncc1 | 32% |
| O=C(NCc1[nH]nc(-c2ccc(F)cc2)c1-c1ccncc1)Nc1cc(Cl)cc(Cl)c1 | 20% |
| O=C(NCc1[nH]nc(-c2ccc(F)cc2)c1-c1ccncc1)c1ccc(Cl)cc1 | 19% |
| Cc1cc(C)c(S(=O)(=O)N[C@@H](C)c2[nH]nc(-c3ccc(F)cc3)c2-c2ccncc2)c(C)c1 | 87% |
| CCCOC(=O)NCc1[nH]nc(-c2ccc(F)cc2)c1-c1ccncc1 | 65% |
| COc1ccc(CC(=O)N[C@H](C)c2[nH]nc(-c3ccc(F)cc3)c2-c2ccncc2)cc1OC | 28% |
| O=C(NCc1[nH]nc(-c2ccc(F)cc2)c1-c1ccncc1)c1ccncc1 | 3% |
| C[C@@H](NC(=O)c1ccccc1Br)c1[nH]nc(-c2ccc(F)cc2)c1-c1ccncc1 | 87% |
| C[C@@H](NC(=O)c1cccnc1)c1[nH]nc(-c2ccc(F)cc2)c1-c1ccncc1 | 36% |
| Cc1noc(C)c1S(=O)(=O)NCCCc1[nH]nc(-c2ccc(F)cc2)c1-c1ccncc1 | 85% |

| SMILES | inhibition |
| --- | --- |
| C[C@@H](NS(=O)(=O)c1ccc(-c2ccon2)s1)c1[nH]nc(-c2ccc(F)cc2)c1-c1ccncc1 | 95% |
| O=S(=O)(c1cccc(Cl)c1Cl)N1CCC(c2[nH]nc(-c3ccc(F)cc3)c2-c2ccncc2)CC1 | 22% |
| C[C@@H](NC(=O)C1CCCC1)c1[nH]nc(-c2ccc(F)cc2)c1-c1ccncc1 | 12% |
| O=C(NCc1[nH]nc(-c2ccc(F)cc2)c1-c1ccncc1)c1c(F)cccc1C(F)(F)F | 65% |
| CCc1ccc(S(=O)(=O)NCc2[nH]nc(-c3ccc(F)cc3)c2-c2ccncc2)cc1 | 8% |
| O=C(NCCc1[nH]nc(-c2ccc(F)cc2)c1-c1ccncc1)c1cccc(Cl)c1Cl | 11% |
| C[C@H](NC(=O)c1ccccc1Cl)c1[nH]nc(-c2ccc(F)cc2)c1-c1ccncc1 | 48% |
| O=S(=O)(c1ccc(F)cc1)N1CCC(c2[nH]nc(-c3ccc(F)cc3)c2-c2ccncc2)CC1 | 28% |
| O=S(=O)(c1c(F)cccc1F)N1CCC(c2[nH]nc(-c3ccc(F)cc3)c2-c2ccncc2)CC1 | 8% |
| C[C@H](NS(=O)(=O)Cc1ccccc1[N+](=O)[O-])c1[nH]nc(-c2ccc(F)cc2)c1-c1ccncc1 | 88% |
| COc1ccc(Br)cc1S(=O)(=O)N1CCC(c2[nH]nc(-c3ccc(F)cc3)c2-c2ccncc2)CC1 | 36% |
| NC(=O)N[C@@H](Cc1ccccc1)c1[nH]nc(-c2ccc(F)cc2)c1-c1ccncc1 | 17% |
| C[C@H](NC(=O)c1cccc(Cl)c1)c1[nH]nc(-c2ccc(F)cc2)c1-c1ccncc1 | 39% |
| CCOC(=O)CCCC(=O)NCc1[nH]nc(-c2ccc(F)cc2)c1-c1ccncc1 | 22% |
| CN(C)CCNC(=O)NCCCc1[nH]nc(-c2ccc(F)cc2)c1-c1ccncc1 | 11% |
| Cn1cnc(S(=O)(=O)NCc2[nH]nc(-c3ccc(F)cc3)c2-c2ccncc2)c1 | 24% |
| O=C(NCc1[nH]nc(-c2ccc(F)cc2)c1-c1ccncc1)c1ccc(F)c(C(F)(F)F)c1 | 22% |
| CC(C)COC(=O)N[C@H](C)c1[nH]nc(-c2ccc(F)cc2)c1-c1ccncc1 | 32% |
| C[C@@H](NS(=O)(=O)c1ccc(Cl)cc1)c1[nH]nc(-c2ccc(F)cc2)c1-c1ccncc1 | 92% |
| C[C@@H](NC(=O)c1ccc(F)cc1C(F)(F)F)c1[nH]nc(-c2ccc(F)cc2)c1-c1ccncc1 | 90% |
| O=S(=O)(NCc1[nH]nc(-c2ccc(F)cc2)c1-c1ccncc1)c1cccc(Cl)c1Cl | 30% |
| O=S(=O)(NCc1[nH]nc(-c2ccc(F)cc2)c1-c1ccncc1)c1ccc(F)c(Cl)c1 | 78% |
| O=C(NCc1[nH]nc(-c2ccc(F)cc2)c1-c1ccncc1)c1ccccc1Cl | 55% |
| O=C(NCCc1[nH]nc(-c2ccc(F)cc2)c1-c1ccncc1)c1ccc(C(F)(F)F)cc1 | 30% |
| O=C(NCc1[nH]nc(-c2ccc(F)cc2)c1-c1ccncc1)c1cc(F)cc(F)c1 | 34% |
| C[C@@H](NC(=O)C(C)(C)C)c1[nH]nc(-c2ccc(F)cc2)c1-c1ccncc1 | 32% |
